Values joined by “and” are separate entries in the source; they are usually repeats but may differ in a detail not shown here. Identical values can stand only once. Like-named read-outs stand apart in the source and are kept apart here.
How the values were obtained:
GSK-3α = molecular target: T1, GSK-3α (Homo sapiens, UniProt P49840); assay: CETSA in HL-60 cell extract, immunoblot; type: binding; settings: for ΔTm at 20 µM / Tm (GSK-3α): 20 µM inhibitor; for Tm difference vs DMSO, same protein: inhibitor minus DMSO; for Tm (fitted melting curve): in °C; for Tm: GSK-3α, cell extract
T1 construct: parallel detection of MAPK14, MAPKAPK2, MAPKAPK3, and GSK-3α; endogenous in cells; host or cells: HL-60 (ATCC CCL-240), living cells or cell extract
T1 sequence (P49840 whole entry): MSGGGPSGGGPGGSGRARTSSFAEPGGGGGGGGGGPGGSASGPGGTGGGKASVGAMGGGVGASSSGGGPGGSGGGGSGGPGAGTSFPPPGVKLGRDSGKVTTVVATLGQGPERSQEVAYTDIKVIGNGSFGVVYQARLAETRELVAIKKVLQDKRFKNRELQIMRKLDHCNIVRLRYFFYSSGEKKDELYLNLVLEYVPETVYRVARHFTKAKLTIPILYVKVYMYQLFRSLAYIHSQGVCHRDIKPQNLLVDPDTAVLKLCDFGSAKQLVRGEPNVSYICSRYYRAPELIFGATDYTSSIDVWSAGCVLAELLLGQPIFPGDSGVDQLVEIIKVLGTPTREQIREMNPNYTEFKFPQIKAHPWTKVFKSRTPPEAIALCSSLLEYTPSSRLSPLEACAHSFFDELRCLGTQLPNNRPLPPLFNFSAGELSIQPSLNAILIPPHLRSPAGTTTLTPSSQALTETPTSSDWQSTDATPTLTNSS
Procedure: (§1) For the differentiation of primary and secondary binding effects, CETSA experiments using cell extracts instead of living cells (cell extract test) are proposed in the literature. Therefore, we performed CETSA assays in HL-60 cell extracts under the same conditions as for living cells (Figure 1, Table 1, Supplementary Table S6).
(§2) HL-60 cells were expanded as described above for CETSA and TPP-TR to about 1.25 million cells per ml. 50 mL of the cell suspension, respectively, was transferred into 50 mL conical tubes. After centrifugation (300 rcf, 3 min, r.t.) and removing all of the supernating culture medium, the cells were washed twice with 25 mL PBS (r.t.) by gently resuspending the cells, followed by centrifugation (300 rcf, 3 min, r.t.) and the removal of the supernatant. The cells were transferred into pre-weighed 2 mL LoBind Eppendorf tubes using 1 mL PBS (r.t.), respectively, for resuspending. After centrifugation (300 rcf, 3 min, r.t.) and removing as much as possible of the supernatants, the cell wet weights were determined. The cells were stored at −80 °C after shock-freezing in liquid nitrogen.
(§3) Cell extracts were obtained by four freeze/thaw cycles as described above for CETSA and TPP-TR using 10 µL ice cold PBS supplemented with protease inhibitors per milligram of cell pellet wet weight for the initial resuspension of the pellet, followed by centrifugation (20,000 rcf, 30 min, 4 °C), and the recovery of the supernatant. After determining the protein content, the cell extracts were diluted to 1.8 mg/mL total protein concentration using ice-cold PBS supplemented with protease inhibitors and aliquots of 99 µL in PCR tube strips, and 1.1 mL in LoBind 1.5 mL Eppendorf tubes were shock-frozen in liquid nitrogen and stored at −80 °C or directly processed.
(§4) A fourth aliquot of 1.8 mg/mL HL-60 cell extract was supplemented with 2.2 µL of DMSO. […] After a brief centrifugation using a benchtop centrifuge, the temperature treatment at the ten different temperatures was performed as described in Section 4.1.1.
(§5) Additionally, the preparation of cell extracts containing the fraction of soluble, non-denatured proteins was performed as described in Section 4.1.1. for living cells, but omitting the freeze/thaw steps for cell lysis.
(§6) For each sample set comprising either ten temperature range samples or ten compound concentration range samples, the same volume of the cell extracts containing the fraction of soluble, non-denatured proteins was used for further analysis. This volume was determined using the two lowest temperature samples (36.5 and 41.2 °C) per temperature range sample set so that they contained an average of 5 µg total protein (e.g., 2.78 µL for all temperature range samples of a sample set whose two lowest temperature samples contain an average of 1.8 mg/mL protein). For the compound concentration range experiments, all samples of a set were used for averaging. The calculated volume was respectively transferred into PCR tubes of a tube strip, supplemented with SDS sample buffer (final concentrations: 25 mM dithiothreitol (DTT), 7.5% glycerol, 3% SDS, 37.5 mM Tris/HCl pH 7.0, 0.005% bromophenol blue), incubated for 10 min at r.t. and applied to SDS-PAGE under external cooling in an ice bath (MW marker: PageRuler pre-stained protein ladder (Thermo scientific, Waltham, MA, USA); NuPAGE 4–12% Bis-Tris Gels, 1.0 mm, Midi Protein Gel, 26-well (Thermo fisher scientific); ice cold MOPS SDS running buffer (50 mM MOPS, 50 mM Tris base, 0.1% SDS, 0.003% EDTA (free acid)); 50 V for 15 min, then 200 V for about 1.5 h, i.e., the rest of the run).

MAPKAPK2 = MAPKAPK2 (Homo sapiens, UniProt P49137); assay: CETSA in HL-60 cell extract, immunoblot; type: binding; settings: for Tm difference vs DMSO, same protein: MAPKAPK2, inhibitor minus DMSO
Sequence of MAPKAPK2 (P49137 whole entry): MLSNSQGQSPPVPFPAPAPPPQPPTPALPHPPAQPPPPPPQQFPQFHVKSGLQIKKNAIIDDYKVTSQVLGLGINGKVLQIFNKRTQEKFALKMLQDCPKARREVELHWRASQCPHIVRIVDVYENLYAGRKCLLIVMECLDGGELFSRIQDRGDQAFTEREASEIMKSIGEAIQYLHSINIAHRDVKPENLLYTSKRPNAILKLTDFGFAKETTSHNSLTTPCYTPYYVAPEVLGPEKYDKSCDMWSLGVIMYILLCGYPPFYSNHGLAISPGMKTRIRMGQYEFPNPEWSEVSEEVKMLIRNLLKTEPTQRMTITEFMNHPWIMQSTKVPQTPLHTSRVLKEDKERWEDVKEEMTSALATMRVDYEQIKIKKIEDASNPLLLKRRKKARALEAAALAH
Procedure: as §1, §2, §3, §4, §5, §6

C14orf166 = C14orf166 (Homo sapiens, UniProt Q9Y224); settings: living HL-60 cells, […] °C, TMT-MS
Sequence of C14orf166 (Q9Y224 whole entry): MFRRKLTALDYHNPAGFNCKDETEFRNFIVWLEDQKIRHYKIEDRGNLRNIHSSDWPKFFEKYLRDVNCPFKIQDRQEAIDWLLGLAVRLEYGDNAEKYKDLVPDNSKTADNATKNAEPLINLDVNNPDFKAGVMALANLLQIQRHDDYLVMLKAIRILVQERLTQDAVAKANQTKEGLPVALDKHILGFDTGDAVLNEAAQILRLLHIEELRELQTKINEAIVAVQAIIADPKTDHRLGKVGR
From the text: Therefore, we performed TPP with compound concentration range (TPP-CCR) experiments according to published procedures. In brief, after preparing tryptic peptides from the non-denatured protein fractions (used for immunoblotting in the previous sections) applying the SP3 method, the peptides were labeled using TMT10plex, coding for inhibitor concentration, and the samples belonging to a TMT set were combined, offline high-pH fractionated, and analyzed by MS.
HL-60 cells were expanded as described above for CETSA and TPP-TR to 1.25 million cells per milliliter. […] A number of 2.5 million cells in 2 mL of medium were added to each tube and incubated (1 h, 37 °C). […]
For each sample set comprising ten compound concentration range samples, a same volume of the cell extracts containing the fraction of soluble, non-denatured proteins, corresponding to an average of 5 µg total protein, was used for further analysis. The calculated volume was respectively transferred into PCR tubes of a tube strip and supplemented with SDS sample buffer without DTT and bromophenol blue (final concentrations: 7.5% glycerol, 3% SDS, 37.5 mM Tris/HCl pH 7.0) and ddH2O to a final volume of 10 µL, respectively. […]

[1] = read-out: ΔTm to DMSO in Cell Extract Compared to Living Cells (GSK-3α)
[2] = CETSA in cell extract (lysate), GSK3a
[3] = HL-60 cell extract, immunoblot, read-out: ΔTm to DMSO (GSK-3α)
[4] = MAPKAPK2, cell extract, immunoblot

Row | SMILES | ΔTm at 20 µM (GSK-3α; [1]) | Tm difference vs DMSO, same protein (GSK-3α; [2]) | Tm (fitted melting curve) (GSK-3α; [2]) | Tm (GSK-3α; immunoblot) | Tm (GSK-3α) (GSK-3α; HL-60 cell extract, immunoblot) | ΔTm at 20 µM (GSK-3α; [3]) | ΔTm to DMSO in Cell Extract Compared to Living Cells (MAPKAPK2) (MAPKAPK2; 20 µM inhibitor) | Tm difference vs DMSO, same protein (MAPKAPK2; CETSA in cell extract (lysate)) | Tm (fitted melting curve) (MAPKAPK2; CETSA in cell extract (lysate), MAPKAPK2, in °C) | Tm (MAPKAPK2) (MAPKAPK2; HL-60 cell extract, 20 µM inhibitor, immunoblot) | ΔTm to DMSO (MAPKAPK2) (MAPKAPK2; HL-60 cell extract, 20 µM inhibitor, immunoblot, 20 µM) | ΔTm to DMSO in cell extract compared to living cells (MAPKAPK2; MAPKAPK2, cell extract minus living cells) | Tm (MAPKAPK2; [4]) | ΔTm to DMSO (MAPKAPK2; [4]) | Tm (fitted melting temperature) (GSK-3α; CETSA in cell extract (lysate), GSK3a, melting curve fit, in °C (unit assumed)) | ΔTm at 20 µM (MAPKAPK2; 20 µM inhibitor, read-out: ΔTm to DMSO in Cell Extract Compared to Living Cells (MAPKAPK2)) | ΔTm at 20 µM (MAPKAPK2; HL-60 cell extract, 20 µM inhibitor, immunoblot, read-out: ΔTm to DMSO (MAPKAPK2)) | Hill slope (C14orf166) (C14orf166)
1 | Cn1c(NC[C@@H](N)Cc2ccccc2)nc(-c2ccncc2)c(-c2ccc3ccccc3c2)c1=O [AMG-548] | -0.05 °C | -0.76 | 48.26 | 48.26 °C | 48.26 °C | -0.76 °C | −2.22 °C | 2.96 | 51.06 | 51.06 °C | 3.0 °C and 2.96 °C | -2.22 °C | 51.06 °C | 2.96 °C |  |  |  | 
2 | Cc1cnc(Nc2ccc(F)cc2Cl)nc1-c1c[nH]c(C(=O)N[C@H](CO)c2cccc(Cl)c2)c1 [ERK 11e] | 1.1 °C | 1.24 | 50.25 | 50.25 °C | 50.25 °C | 1.24 °C |  | 0.23 |  |  |  |  |  |  | 50.2547 | 0.25 °C | 0.23 °C | 
3 | C[S+]([O-])c1ccc(-c2nc(-c3ccncc3)c(-c3ccc(F)cc3)[nH]2)cc1 (stereo not shown) [SB203580] |  |  |  |  |  |  |  |  |  |  |  |  |  |  |  |  |  | 0.33

Source: article PMC9147192, “Small Molecule Arranged Thermal Proximity Coaggregation (smarTPCA)—A Novel Approach to Characterize Protein–Protein Interactions in Living Cells by Similar Isothermal Dose–Responses” (International Journal of Molecular Sciences, 2022)
